In publication PMC9394307, “Discovery of Putative Dual Inhibitor of Tubulin and EGFR by Phenotypic Approach on LASSBio-1586 Homologs” (Pharmaceuticals, 2022):
Where “and” joins values, the source holds several entries; their conditions need not be identical. Identical values can stand only once. Like-named read-outs stand apart in the source and are kept apart here. Each block holds one molecule with its values, some of them ahead of it.

Key:
[1] = test system: HL-60; assay: MTT cell viability assay, HL-60; assay type: cell-based, human; settings: MTT, value (95% CI), read-out: CC50 (µM) (CI) HL-60
Description: (§1) The cytotoxic activity of compounds 3–13 was determined based on an MTT assay against different human tumor cell lines, using LASSBio-1586 (2), LASSBio-1735 (3), CA-4 (1) and pelitinib as standards (Table 2). To determine the cytotoxic selectivity index, compounds were also evaluated toward human lymphocytes (Table 3).
(§2) The target compounds were tested (0.0001–100 µM) for cytotoxic activity against selected human cancer cell lines, such as HL-60 (acute promyelocytic leukemia), MCF-7 (mammary adenocarcinoma), PC-3 (prostate adenocarcinoma), H1975 (non-small cell lung cancer—EGFR^L858R+T790M), PC-9 (non-small cell lung cancer—EGFR^L858R) H292 (mucoepidermoid pulmonary carcinoma—EGFR wild type), LoVo (colorectal adenocarcinoma—EGFRwild type) and GM16000 (lymphocyte). All the human cancer cell lines were purchased from Cell Bank of Rio de Janeiro—BCRJ. They were cultured in RPMI 1640 medium with 10% (v/v) FBS, 2 mM glutamine, at 37 °C in a humidified incubator containing 5% CO2.
(§3) The cytotoxicity of the compounds was evaluated by the MTT assay. […] For lymphocytic lines, a density of 0.3 × 10^6 cells/mL was used. Afterwards they were treated with varying concentrations of the target compounds 2–12 (0.0001–100 µM), CA-4 (1) and pelitinib at 37 °C, in triplicate. The medium was incubated with 20 μL of 5 mg/mL MTT solution for 3 h in a humidified incubator containing 5% CO2 [11].
(§4) The purple-colored formazan crystals formed in the wells were dissolved in DMSO and their absorbance was measured at 595 nm with a microplate reader (SpectraMax M5, Molecular Devices).

[2] = test system: H1975; assay: MTT cell viability assay, H1975; assay type: cell-based, human; settings: Homo sapiens, MTT, value (95% CI), read-out: CC50 (µM) (CI) H1975
Description: as §1, §2, §3, §4

[3] = test system: H292; assay: MTT cell viability assay, H292; assay type: cell-based, human; settings: Homo sapiens, MTT, value (95% CI), read-out: CC50 (µM) (CI) H292
Description: as §1, §2, §3, §4

[4] = test system: LoVo; assay: MTT cell viability assay, LoVo; assay type: cell-based; settings: Homo sapiens, MTT, 72 h, value (95% CI), read-out: CC50 (µM) (CI) LoVo
Description: as §1, §2
(§5) The cytotoxicity of the compounds was evaluated by the MTT assay. The cell lines were cultured in 96 well plates for 72 h with a density of 0.1 × 10^5 cells/mL to 0.7 × 10^5 cells/mL to adherent cell lines. For lymphocytic lines, a density of 0.3 × 10^6 cells/mL was used. Afterwards they were treated with varying concentrations of the target compounds 2–12 (0.0001–100 µM), CA-4 (1) and pelitinib at 37 °C, in triplicate. The medium was incubated with 20 μL of 5 mg/mL MTT solution for 3 h in a humidified incubator containing 5% CO2 [11].
as §4

[5] = test system: MCF-7; assay: MTT cell viability assay, MCF-7; assay type: cell-based, human; settings: MTT, 72 h, value (95% CI), read-out: CC50 (µM) (CI) MCF-7
Description: as §1, §2, §5, §4

[6] = test system: PC-3; assay: MTT cell viability assay, PC-3; assay type: cell-based; settings: Homo sapiens, PC-3; MTT, 72 h; value (95% CI); read-out: CC50 (µM) (CI) PC-3
Description: as §1, §2, §5, §4

[7] = test system: PC-9; assay: MTT cell viability assay, PC-9; assay type: cell-based, human; settings: Homo sapiens, MTT, value (95% CI), read-out: CC50 (µM) (CI) PC-9
Description: as §1, §2, §3, §4

[8] = MTT cell viability assay, GM16000 lymphocytes; assay type: cell-based; settings: GM16000 lymphocyte cells (non-tumor), human lymphocytes, value (95% CI)
Description: as §1
To establish the cytotoxic selective index (SI) of LASSBio-1586 homologs, they were studied on human lymphocyte cell lines (GM16000), using the MTT assay. The SI was calculated by the ratio between the CC50 on tumor and non-tumor cell lines. Although there is no consensus, values of SI ≥ 10 is considered satisfactory to assign safety to a new cytotoxic agent. This value means that the compound is more than ten times more cytotoxic to the tumor cell line than to normal cell line.
as §2, §5, §4

[9] = test system: H1975 cells; assay: Immunofluorescence of β-tubulin / microtubules; assay type: cell-based, human; settings: H1975, 48 h, CA-4 0.3 µM, vincristine 0.5 µM, taxol 0.1 µM, LASSBio-1586 10 µM, LASSBio-1735 0.5 µM, LASSBio-2070 4.5 µM, LASSBio-2074 20 µM
Description: Antitubulin agents have been broadly classified into destabilizing or stabilizing agents, based on their interference with the dynamic balance of polymerization or depolymerization of microtubules. […] CA-4 (1, 0.3 µM), vincristine (0.5 µM) and taxol (0.1 µM) were used as standard controls.
After incubation, cells were rinsed with PBS and fixed with 4% paraformaldehyde in PBS for 10 min at room temperature. They were then permeabilized with 0.5% Triton-X 100 in PBS 3 times for 10 min. The same solution was used for all subsequent washing steps. Cells were incubated with an anti-beta-tubulin antibody for 1 h at 37 °C. After incubation, cells were washed for 30 min and incubated with Alexa Fluor® 488, conjugated secondary antibody for 1 h at 37 °C, and nuclei were labeled with DAPI (0.1 mg/mL in 0.9% NaCl).
Live cultured cells grown in coverslips were mounted in Prolong Gold solution (Molecular Probes, USA) and were imaged on a Leica TCS SPE confocal microscope (Leica Microsystems, Germany) using 63x 1.3 N.A. oil immersion and the images acquired by the LAS X software. Cell morphology, focusing on the microtubules was analyzed, qualitatively, using the public domain NIH ImageJ Program (developed at the National Institutes of the USA Health and available on the internet at http://imagej.nih.gov/ij/ (accessed on 1 September 2021).

[10] = test system: LoVo; assay: MTT cell viability assay, LoVo; assay type: cell-based; settings: Homo sapiens, 48 h, value (95% CI)
[11] = MTT cell viability assay, GM16000 lymphocytes; assay type: cell-based; settings: GM16000 lymphocyte cells (non-tumor), human lymphocytes, value (95% CI); remark: listed apart in the source
[12] = Homo sapiens, HL-60, 48 h, 48 h
[13] = Homo sapiens, HL-60, 72 h, 72 h

- melting point: 130 to 131 °C and 130.12 °C
SMILES: COc1cc(C(=O)N(Cc2ccccc2)/N=C/c2ccccc2)cc(OC)c1OC [LASSBio-2070 (10), (E)-N-benzyl-N’-benzylidene-3,4,5-trimethoxybenzohydrazide]
- CC50 [1, 12]: 6.29 µM
- CC50 [1, 13]: 0.172 µM
- CC50 ([2]; NCI-H1975, 48 h, 48 h): 0.903 µM
- CC50 ([2]; NCI-H1975, 72 h, 72 h): 2.79 µM
- CC50 ([3]; NCI-H292, 48 h, 48 h): 0.147 µM
- CC50 ([3]; NCI-H292, 72 h, 72 h): 0.883 µM
- CC50 [4]: 0.208 µM
- CC50 ([5]; Homo sapiens, MCF7, 72 h): 1.7 µM
- CC50 [6]: 0.361 µM
- CC50 ([7]; PC-9, 48 h, 48 h): 0.244 µM
- CC50 ([7]; PC-9, 72 h, 72 h): 0.337 µM
- CC50 at 72 h [8]: 1.05 µM
- cell morphology after treatment [9]: rounded shape
- effect on microtubules (stabilizing / destabilizing profile) [9]: typical response of microtubule destabilizing agents
- CC50 [10]: 2.12 µM
- CC50 at 48 h [11]: 0.935 µM

SMILES: COc1cc(C(=O)N/N=C/c2ccccc2)cc(OC)c1OC [LASSBio-1586 (2), (E)-N’-benzylidene-3,4,5-trimetoxybenzohydrazide]
- CC50 [1, 12]: 3.59 µM
- CC50 [1, 13]: 2.08 µM
- CC50 ([1]; 72 h): 2.13 µM
- CC50 ([2]; NCI-H1975, 48 h, 48 h): 2.02 µM
- CC50 ([2]; NCI-H1975, 72 h, 72 h): 1.57 µM
- CC50 ([3]; NCI-H292, 48 h, 48 h): 2.19 µM
- CC50 ([3]; NCI-H292, 72 h, 72 h): 1.4 µM
- CC50 [4]: 0.039 µM
- CC50 ([5]; Homo sapiens, MCF7, 72 h): 7.53 µM
- CC50 [6]: 1.62 µM
- CC50 ([7]; PC-9, 48 h, 48 h): 0.94 µM
- CC50 ([7]; PC-9, 72 h, 72 h): 0.587 µM
- CC50 at 72 h [8]: 1.51 µM
- cell morphology after treatment [9]: more spread-out morphology
- effect on microtubules (stabilizing / destabilizing profile) [9]: cell morphology similar to microtubule-stabilizing drugs
- effect on microtubules (stabilizing / destabilizing profile) ([9]; listed as 2 (LASSBio-1586)): microtubule destabilizing behavior
- CC50 [10]: 1.72 µM
- CC50 at 48 h [11]: 0.763 µM

- melting point: 91 to 92 °C and 91.67 °C
SMILES: CCOC(=O)CN(/N=C/c1ccccc1)C(=O)c1cc(OC)c(OC)c(OC)c1 [LASSBio-2074 (11), Ethyl (E)-N-(benzylideneamino)-N-(3,4,5-trimethoxybenzoyl)glycinate]
- CC50 [1, 12]: 5.69 µM
- CC50 [1, 13]: 0.126 µM
- CC50 ([2]; NCI-H1975, 48 h, 48 h): 4.83 µM
- CC50 ([2]; NCI-H1975, 72 h, 72 h): 1.2 µM
- CC50 ([3]; NCI-H292, 48 h, 48 h): 0.593 µM
- CC50 ([3]; NCI-H292, 72 h, 72 h): 0.75 µM
- CC50 [4]: 0.106 µM
- CC50 ([5]; Homo sapiens, MCF7, 72 h): 0.869 µM
- CC50 [6]: 1.36 µM
- CC50 ([7]; PC-9, 48 h, 48 h): 1.41 µM
- CC50 ([7]; PC-9, 72 h, 72 h): 0.202 µM
- CC50 at 72 h [8]: 4.19 µM
- cell morphology after treatment [9]: more spread-out morphology
- effect on microtubules (stabilizing / destabilizing profile) [9]: cell morphology similar to microtubule-stabilizing drugs
- CC50 [10]: 2.64 µM
- CC50 at 48 h [11]: 3.91 µM

- melting point: 110 °C and 110.56 °C
SMILES: COc1cc(C(=O)N(C)/N=C/c2ccccc2)cc(OC)c1OC [LASSBio-1735 (3), (E)-N’-benzylidene-3,4,5-trimethoxy-N-methylbenzohydrazide]
- CC50 [1, 12]: 8.77 µM
- CC50 [1, 13]: 0.039 µM
- CC50 ([2]; NCI-H1975, 48 h, 48 h): 0.096 µM
- CC50 ([2]; NCI-H1975, 72 h, 72 h): 0.079 µM
- CC50 ([3]; NCI-H292, 48 h, 48 h): 0.152 µM
- CC50 ([3]; NCI-H292, 72 h, 72 h): 0.25 µM
- CC50 [4]: 0.149 µM
- CC50 ([5]; Homo sapiens, MCF7, 72 h): 0.28 µM
- CC50 [5]: 0.276 µM
- CC50 [6]: 0.201 µM
- CC50 ([7]; PC-9, 48 h, 48 h): 1.34 µM
- CC50 ([7]; PC-9, 72 h, 72 h): 0.09 µM
- CC50 at 72 h [8]: 0.131 µM
- cell morphology after treatment [9]: more spread-out morphology
- effect on microtubules (stabilizing / destabilizing profile) [9]: cell morphology similar to microtubule-stabilizing drugs
- effect on microtubules (stabilizing / destabilizing profile) ([9]; listed as 3 (LASSBio-1735)): microtubule destabilizing behavior
- CC50 [10]: 0.479 µM
- CC50 at 48 h [11]: 0.059 µM
